For this data set the following is noted: 21 days.

Each structure is given as a SMILES string.

We go through two molecules from patent US9872829B2, “Core sheath drug delivery devices” (Chemo Research, S.L., priority 2012, dated 2018).

Experimental: Etonogestrel (ETO) solubility in the hydrophilic polyurethane, Hydrothane AL 25-80A, was determined by evaluating its in-vitro elution (IVE) from core sheath IVRs containing ETO in the core at various loadings.
The core polymer was Hydrothane AL 25-80A and the sheath polymer EVA VA content 28% w/w.

`C#C[C@]1(O)CC[C@H]2[C@@H]3CCc4cc(O)ccc4[C@H]3CC[C@@]21C` [EE, Ethinyl Estradiol]: the “Csat in Hydrothane AL 25-80A (concentration concluded to be below Csat)” value is on record as greater than 0.25%.

Take `C#C[C@]1(O)CC[C@H]2[C@@H]3CCC4=CC(=O)CC[C@@H]4[C@H]3C(=C)C[C@@]21CC` [ETO, Etonogestrel]: the “Csat in Hydrothane AL 25-80A (concentration concluded to be below Csat)” value is recorded as greater than 1.00%.
